What was measured:
Settings in all cases: 72 h
HepG2 [1] = assay: cell viability relative to DMSO; higher = less toxic
U2OS [2] = assay: as above
Vero E6 [3] = assay: as above
Caco-2 [4] = assay: as above
Calu-3 [5] = assay: as above
HepG2 [6] = assay: drug sensitivity score (DSS) for viability; higher = more toxic; extreme values may be limits of the assay
U2OS [7] = assay: as above
Vero E6 [8] = assay: as above
Caco-2 [9] = assay: as above
Calu-3 [10] = assay: as above
HepG2 [11] = assay: relative viability EC50 (midpoint between 100% and the lowest measured viability); higher = less toxic
U2OS [12] = assay: as above
Vero E6 [13] = assay: as above
Caco-2 [14] = assay: as above
Calu-3 [15] = assay: as above

| SMILES | cell viability (HepG2 [1]; 1 nM) | cell viability (HepG2 [1]; 10 nM) | cell viability (HepG2 [1]; 100 nM) | cell viability (HepG2 [1]; 1000 nM) | cell viability (HepG2 [1]; 10000 nM) | cell viability (U2OS [2]; 1 nM) | cell viability (U2OS [2]; 10 nM) | cell viability (U2OS [2]; 100 nM) | cell viability (U2OS [2]; 1000 nM) | cell viability (U2OS [2]; 10000 nM) | cell viability (Vero E6 [3]; 1 nM) | cell viability (Vero E6 [3]; 10 nM) | cell viability (Vero E6 [3]; 100 nM) | cell viability (Vero E6 [3]; 1000 nM) | cell viability (Vero E6 [3]; 10000 nM) | cell viability (Caco-2 [4]; 1 nM) | cell viability (Caco-2 [4]; 10 nM) | cell viability (Caco-2 [4]; 100 nM) | cell viability (Caco-2 [4]; 1000 nM) | cell viability (Caco-2 [4]; 10000 nM) | cell viability (Calu-3 [5]; 1 nM) | cell viability (Calu-3 [5]; 10 nM) | cell viability (Calu-3 [5]; 100 nM) | cell viability (Calu-3 [5]; 1000 nM) | cell viability (Calu-3 [5]; 10000 nM) | drug sensitivity score (HepG2 [6]) | drug sensitivity score (U2OS [7]) | drug sensitivity score (Vero E6 [8]) | drug sensitivity score (Caco-2 [9]) | drug sensitivity score (Calu-3 [10]) | relative viability EC50 (HepG2 [11]) | relative viability EC50 (U2OS [12]) | relative viability EC50 (Vero E6 [13]) | relative viability EC50 (Caco-2 [14]) | relative viability EC50 (Calu-3 [15]) |
| --- | --- | --- | --- | --- | --- | --- | --- | --- | --- | --- | --- | --- | --- | --- | --- | --- | --- | --- | --- | --- | --- | --- | --- | --- | --- | --- | --- | --- | --- | --- | --- | --- | --- | --- | --- |
| CC1(C)CC(=O)C(C2C3=C(CC(C)(C)CC3=O)Oc3ccccc32)C(=O)C1 (stereo not given) | 92.1% | 103% | 97.5% | 96.8% | 102% | 96.7% | 101% | 95% | 98.2% | 101% | 102% | 98% | 103% | 102% | 100% | 99.2% | 93.7% | 96.5% | 95.8% | 99.2% | 93% | 98.1% | 98% | 101% | 109% | 0 | 0 | 0 | 0 | 0 | > 10 µM | > 10 µM | > 10 µM | > 10 µM | > 10 µM |
| CCC(=N\O)/C(C)=C/c1ccc(F)cc1 | 91.9% | 107% | 102% | 102% | 91% | 98.4% | 100% | 98.4% | 103% | 95% | 99.1% | 99.2% | 102% | 98.5% | 98.8% | 93.9% | 91.4% | 89.5% | 96.4% | 97.5% | 104% | 98.5% | 95.9% | 107% | 95% | 0 | 0 | 0 | 0 | 0 | > 10 µM | > 10 µM | > 10 µM | > 10 µM | > 10 µM |
| CCN(CC)CCCC(C)Nc1nc(C)cc(Nc2ccc3nc(C)cc(N)c3c2)n1 (stereo not given) | 96% | 99.9% | 100% | 95.6% | 79.9% | 106% | 97.6% | 100% | 97.8% | 102% | 97.7% | 102% | 104% | 97.9% | 97.6% | 102% | 97.2% | 99.5% | 95% | 105% | 104% | 92% | 95.4% | 92.5% | 110% | 1.2 | 0 | 0 | 0 | 0 | > 10 µM | > 10 µM | > 10 µM | > 10 µM | > 10 µM |
| CN(C)Cc1ccc(-c2nc3cccc4c3n2CCNC4=O)cc1 | 109% | 93.3% | 97.5% | 95.9% | 77.1% | 93.6% | 98% | 94.6% | 100% | 99.8% | 104% | 95.9% | 103% | 96% | 101% | 92.8% | 117% | 104% | 100% | 98.2% | 85.7% | 90.3% | 80.8% | 73.7% | 99.7% | 1.4 | 0 | 0 | 0 | 0 | > 10 µM | > 10 µM | > 10 µM | > 10 µM | > 10 µM |
| CNc1nc(C)nc(N[C@H]2CCC[C@@H](C(=O)NCc3ccc(C#N)cc3C(F)(F)F)C2)n1 | 99.4% | 98.7% | 103% | 94.7% | 111% | 97% | 100% | 97.9% | 107% | 99.9% | 99.3% | 96.8% | 100% | 96.8% | 108% | 87.8% | 102% | 91.8% | 98.6% | 95.1% | 93.9% | 98.1% | 97% | 93.2% | 89.4% | 0 | 0 | 0 | 0 | 0 | > 10 µM | > 10 µM | > 10 µM | > 10 µM | > 10 µM |
| COc1cc(Nc2nc3ccccc3nc2NS(=O)(=O)c2ccc(NC(=O)c3ccc(C)c(OC)c3)cc2)cc(OC)c1 | 101% | 83.8% | 92.1% | 99.1% | 89.7% | 97% | 97.7% | 97.1% | 95.9% | 103% | 99.9% | 95.9% | 102% | 95.7% | 99.9% | 95.4% | 100% | 96% | 97.7% | 103% | 109% | 85.9% | 109% | 94.4% | 110% | 0 | 0 | 0 | 0 | 0 | > 10 µM | > 10 µM | > 10 µM | > 10 µM | > 10 µM |
| COc1cccc(CN(C(=O)CC(C)(C)C)[C@H]2C[C@@H](C(=O)N3CCNCC3)N(Cc3ccc4c(c3)OCO4)C2)c1 | 94.8% | 96.2% | 87.2% | 104% | 91.4% | 95.2% | 98% | 97.3% | 97% | 90.7% | 101% | 102% | 107% | 98.2% | 95.6% | 98.4% | 106% | 98.3% | 102% | 87.5% | 93.6% | 98% | 95.3% | 92.4% | 102% | 0 | 0 | 0 | 0 | 0 | > 10 µM | > 10 µM | > 10 µM | > 10 µM | > 10 µM |
| COc1ncc(-c2ccc3nccc(-c4ccnnc4)c3c2)cc1NS(=O)(=O)c1ccc(F)cc1F | 98.8% | 77.2% | 46.3% | 25% | 29.2% | 91% | 80.3% | 34.2% | 13.9% | 0.9% | 90.2% | 80.1% | 38.9% | 22.6% | 15.1% | 84.8% | 60.2% | 19% | 25.3% | 28.8% | 79.4% | 47.4% | 22.2% | 19.5% | 17.4% | 22.2 | 26.2 | 24.1 | 29.8 | 32.5 | 0.0297 µM | 0.0484 µM | 0.0351 µM | 0.0081 µM | 0.0044 µM |
| Cc1cc(SCc2sc(-c3ccc(C(F)(F)F)cc3)nc2C)ccc1OCC(=O)O | 99% | 101% | 106% | 104% | 96.1% | 98.4% | 102% | 99.9% | 107% | 99% | 106% | 104% | 103% | 97.6% | 97.3% | 99.9% | 103% | 104% | 103% | 96.2% | 108% | 92.8% | 92.6% | 99.5% | 102% | 0 | 0 | 0 | 0 | 0 | > 10 µM | > 10 µM | > 10 µM | > 10 µM | > 10 µM |
| Clc1cccc2c1CN(C1=NCCN1)C2 | 96.7% | 101% | 91.8% | 92.5% | 97.3% | 101% | 101% | 97.3% | 102% | 92.1% | 98.9% | 98.7% | 104% | 98.5% | 99.2% | 100% | 100% | 95.6% | 98.8% | 97.3% | 97.1% | 90.1% | 109% | 101% | 98.3% | 0 | 0 | 0 | 0 | 0 | > 10 µM | > 10 µM | > 10 µM | > 10 µM | > 10 µM |
| NC(=O)N/N=C/c1ccc(Oc2ccc(F)cc2)cc1 | 95.8% | 106% | 92.4% | 89.7% | 96% | 95.9% | 94.5% | 98.9% | 97.6% | 99.4% | 105% | 101% | 104% | 100% | 86.6% | 99.6% | 98.4% | 104% | 96.8% | 97.9% | 99.9% | 101% | 80.1% | 92.8% | 109% | 0.1 | 0 | 0.1 | 0 | 0 | > 10 µM | > 10 µM | > 10 µM | > 10 µM | > 10 µM |
| O=C(NCC1CCOCC1)c1cnc(Nc2ccc(Cl)cc2Cl)nc1C(F)(F)F | 105% | 102% | 102% | 99.2% | 112% | 96.5% | 102% | 96% | 95.5% | 93.2% | 99.8% | 91.9% | 94.8% | 93.1% | 98.9% | 104% | 99.3% | 113% | 104% | 101% | 104% | 107% | 100% | 99.4% | 105% | 0 | 0 | 0 | 0 | 0 | > 10 µM | > 10 µM | > 10 µM | > 10 µM | > 10 µM |

Reference: the supplement of paper PMC13380429
